Like-named read-outs stand apart in the source and are kept apart here.
Legend:
μ-opioid receptor [1] = molecular target: T1, μ-opioid receptor (Homo sapiens, UniProt P35372); assay: μ-opioid receptor [35S]GTPγS functional assay, U-2 OS cells; format: biochemical; set-up: expressed in transfected cells; host or cells: U-2 OS
κ opioid receptor = κ opioid receptor (Homo sapiens, UniProt P41145); assay: κ-opioid receptor [35S]GTPγS functional assay, U-2 OS cells; format: biochemical; set-up: expressed in transfected cells; host or cells: U-2 OS (in-house membranes); details: for Emax: read-out: GTPγS κ Emax
μ-opioid receptor [2] = molecular target: T1, μ-opioid receptor; assay: μ-opioid receptor [35S]GTPγS functional assay, HEK-293 or CHO cells
[3] = U-2 OS cells, read-out: GTPγS μ EC50
[4] = U-2 OS cells, relative to DAMGO, read-out: GTPγS μ Emax
[5] = U-2 OS cells, read-out: GTPγS κ EC50
[6] = U-2 OS cells, relative to U69,593
[7] = U-2 OS cells, bound in μM, read-out: GTPγS κ EC50

Sequence of κ opioid receptor (P41145 whole entry): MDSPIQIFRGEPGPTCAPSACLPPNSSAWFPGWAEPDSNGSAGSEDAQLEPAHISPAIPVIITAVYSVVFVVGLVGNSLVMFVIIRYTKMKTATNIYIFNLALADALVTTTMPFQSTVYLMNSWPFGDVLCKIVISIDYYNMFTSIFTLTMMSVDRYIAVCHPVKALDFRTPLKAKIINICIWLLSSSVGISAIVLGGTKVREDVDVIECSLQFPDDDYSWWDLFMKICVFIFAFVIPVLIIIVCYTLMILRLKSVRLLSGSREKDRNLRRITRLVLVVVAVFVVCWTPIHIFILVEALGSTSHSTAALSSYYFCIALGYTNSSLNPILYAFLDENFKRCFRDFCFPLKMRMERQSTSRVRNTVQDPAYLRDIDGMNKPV
T1 sequence (P35372 whole entry, species assumed): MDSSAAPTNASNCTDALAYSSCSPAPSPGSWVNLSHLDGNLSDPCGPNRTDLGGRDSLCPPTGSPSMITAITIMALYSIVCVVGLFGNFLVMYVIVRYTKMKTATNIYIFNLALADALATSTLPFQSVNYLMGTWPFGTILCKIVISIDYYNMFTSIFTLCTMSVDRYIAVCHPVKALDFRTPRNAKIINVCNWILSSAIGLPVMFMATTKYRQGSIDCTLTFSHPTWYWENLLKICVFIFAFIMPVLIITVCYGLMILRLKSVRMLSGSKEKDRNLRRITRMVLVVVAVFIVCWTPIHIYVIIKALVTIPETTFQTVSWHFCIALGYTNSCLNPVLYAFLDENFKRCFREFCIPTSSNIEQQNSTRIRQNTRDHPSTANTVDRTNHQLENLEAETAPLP

Row | Compound | EC50 (μ-opioid receptor [1]; [3]) [µM] | Emax (μ-opioid receptor [1]; [4]) [%] | EC50 (κ opioid receptor; [5]) [µM] | Emax (κ opioid receptor; [6]) [%] | other results
1 | COc1ccc(CCN[C@H]2[C@H]3Cc4ccc(O)cc4[C@]2(C)CCN3C)cc1 [Compound 100, (2R,6S,11R)-11-((4-methoxyphenethyl)amino)-3,6-dimethyl-1,2,3,4,5,6-hexahydro-2,6-methanobenzo[d]azocin-8-ol] | 0.04 ± 0.00325 | 102 ± 1.45 | 1.76 ± 0.364 | 45 ± 2.08 | 
2 | CN1CC[C@@]2(C)c3cc(O)ccc3C[C@@H]1[C@@H]2NCCc1ccc(Cl)c(Cl)c1 [Compound 98, (2R,6S,11R)-11-((3,4-dichlorophenethyl)amino)-3,6-dimethyl-1,2,3,4,5,6-hexahydro-2,6-methanobenzo[d]azocin-8-ol] | 0.0003 ± 2.7e-05 | 104 ± 3.76 | 0.0286 ± 0.00321 | 95.3 ± 3.84 | 
3 | CN1CC[C@@]2(C)c3cc(O)ccc3C[C@@H]1[C@H]2N(C)CCc1ccc(S(N)(=O)=O)cc1 [Compound 109, 4-(2-(((2R,6S,11S)-8-hydroxy-3,6-dimethyl-1,2,3,4,5,6-hexahydro-2,6-methanobenzo[d]azocin-11-yl)(methyl)amino)ethyl)benzenesulfonamide] | 0.029 ± 0.00136 | 100 ± 3.18 | 0.192 ± 0.0416 | 36.7 ± 0.67 | 
4 | CN1CC[C@@]2(C)c3cc(O)ccc3C[C@@H]1[C@@H]2NCCc1ccc(F)cc1 [Compound 101, (2R,6S,11R)-11-((4-fluorophenethyl)amino)-3,6-dimethyl-1,2,3,4,5,6-hexahydro-2,6-methanobenzo[d]azocin-8-ol] |  |  |  | 66.7 ± 1.2 | EC50 (μ-opioid receptor [1]; GTPγS μ EC50, U-2 OS cells): 0.00373 ± 0.00021 µM; EC50 (κ opioid receptor): 1.08 ± 0.113 µM
5 | CN1CC[C@@]2(C)c3cc(O)ccc3C[C@@H]1[C@@H]2NCCc1cccs1 [Compound 104, (2R,6S,11R)-3,6-dimethyl-11-((2-(thiophen-2-yl)ethyl)amino)-1,2,3,4,5,6-hexahydro-2,6-methanobenzo[d]azocin-8-ol] | 0.0513 ± 0.00526 | 105.3 ± 0.88 | 1.26 ± 0.229 | 79.7 ± 5.9 | 
6 | C[C@]12CCN(CC3CC3)[C@H](Cc3ccc(O)cc31)[C@H]2NCCc1ccc(S(N)(=O)=O)cc1 [Compound 97, 4-(2-(((2R,6S,11S)-3-(cyclopropylmethyl)-8-hydroxy-6-methyl-1,2,3,4,5,6-hexahydro-2,6-methanobenzo[d]azocin-11-yl)amino)ethyl)benzenesulfonamide] |  | 2.5 |  | 0 | EC50 (μ-opioid receptor [1]; U-2 OS cells, bound in μM, read-out: GTPγS μ EC50): > 20 µM; EC50 (κ opioid receptor; [7]): > 20 µM
7 | CN1CC[C@@]2(C)c3cc(O)ccc3C[C@@H]1[C@@H]2N(C)CC1CCN(C(=O)OC(C)(C)C)CC1 [Compound 108, tert-butyl 4-((((2R,6S,11R)-8-hydroxy-3,6-dimethyl-1,2,3,4,5,6-hexahydro-2,6-methanobenzo[d]azocin-11-yl)(methyl)amino)methyl)piperidine-1-carboxylate] | 0.00039 ± 0.00011 |  | 0.00327 ± 0.00069 | 18.8 ± 1.25 | GTPγS μ Emax (μ-opioid receptor [1]; U-2 OS cells, relative to DAMGO): 80.80 ± 2.50%
8 | CN(C(=O)Nc1ccc(C(C)(C)C)cc1)[C@@H]1[C@H]2Cc3ccc(O)cc3[C@]1(C)CCN2CC1CC1 [Compound 133, 3-(4-(tert-butyl)phenyl)-1-((2R,6S,11S)-3-(cyclopropylmethyl)-8-hydroxy-6-methyl-1,2,3,4,5,6-hexahydro-2,6-methanobenzo[d]azocin-11-yl)-1-methylurea] | 0.0039 ± 0.00074 | 22.3 ± 1.2 | 0.0217 ± 0.00316 | 42 ± 4.02 | 
9 | C[C@]12CCN(CC3CC3)[C@H](Cc3ccc(O)cc31)[C@@H]2NS(=O)(=O)c1cccc(C(F)(F)F)c1 [Compound 129, N-((2R,6S,11R)-3-(cyclopropylmethyl)-8-hydroxy-6-methyl-1,2,3,4,5,6-hexahydro-2,6-methanobenzo[d]azocin-11-yl)-3-(trifluoromethyl)benzenesulfonamide] | 0.00914 ± 0.00119 | 20 ± 1.15 | 0.00078 ± 7e-05 | 97.3 ± 1.86 | 
10 | CN1CC[C@@]2(C)c3cc(O)ccc3C[C@@H]1[C@H]2N(C)S(=O)(=O)c1cccc(C(F)(F)F)c1 [Compound 131, N-((2R,6S,11S)-8-hydroxy-3,6-dimethyl-1,2,3,4,5,6-hexahydro-2,6-methanobenzo[d]azocin-11-yl)-N-methyl-3-(trifluoromethyl)benzenesulfonamide] | 0.29 ± 0.00532 | 69 ± 1 |  | 0 | EC50 (κ opioid receptor; [7]): > 20 µM
11 | CN1CC[C@@]2(C)c3cc(O)ccc3C[C@@H]1[C@@H]2NC(=O)Nc1nc2cc(F)ccc2s1 [Compound 139, 1-(5-fluorobenzo[d]thiazol-2-yl)-3-((2R,6S,11R)-8-hydroxy-3,6-dimethyl-1,2,3,4,5,6-hexahydro-2,6-methanobenzo[d]azocin-11-yl)urea] | 0.0125 ± 0.00218 | 87 ± 3.08 | 0.0918 ± 0.00488 | 48 ± 5.13 | 
12 | CN1CC[C@@]2(C)c3cc(O)ccc3C[C@@H]1[C@H]2NCCc1c[nH]c2ccccc12 [Compound 110, (2R,6S,11S)-11-((2-(1H-indol-3-yl)ethyl)amino)-3,6-dimethyl-1,2,3,4,5,6-hexahydro-2,6-methanobenzo[d]azocin-8-ol] | 0.0116 ± 0.00155 | 92.3 ± 2.03 | 0.0254 ± 0.00338 | 37.7 ± 2.03 | 
13 | CC(C)CCC(=O)N(C)[C@H]1[C@H]2Cc3ccc(O)cc3[C@]1(C)CCN2C [Compound 116, N-((2R,6S,11R)-8-hydroxy-3,6-dimethyl-1,2,3,4,5,6-hexahydro-2,6-methanobenzo[d]azocin-11-yl)-N,4-dimethylpentanamide] | 0.00312 ± 0.00015 | 104 ± 2.96 | 0.0694 ± 0.00537 | 56.3 ± 3.93 | 
14 | CN1CC[C@@]2(C)c3cc(O)ccc3C[C@@H]1[C@@H]2N(C)C(=O)/C=C/c1cccnc1 [Compound 122, (E)-N-((2R,6S,11R)-8-hydroxy-3,6-dimethyl-1,2,3,4,5,6-hexahydro-2,6-methanobenzo[d]azocin-11-yl)-N-methyl-3-(pyridin-3-yl)acrylamide] | 0.00036 ± 1e-05 | 102 ± 1.2 | 0.0152 ± 0.00263 | 94.5 ± 0.65 | 
15 | CN1CC[C@@]2(C)c3cc(O)ccc3C[C@@H]1[C@@H]2N(C)S(=O)(=O)c1cccc(C(F)(F)F)c1 [Compound 132, N-((2R,6S,11R)-8-hydroxy-3,6-dimethyl-1,2,3,4,5,6-hexahydro-2,6-methanobenzo[d]azocin-11-yl)-N-methyl-3-(trifluoromethyl)benzenesulfonamide] | 0.00303 ± 0.00017 | 95.3 ± 2.6 | 0.0114 ± 0.00158 | 89 ± 5.69 | 
16 | CN1CC[C@@]2(C)c3cc(O)ccc3C[C@@H]1[C@H]2NCCCNC(=O)OC(C)(C)C [Compound 111, tert-butyl (3-(((2R,6S,11S)-8-hydroxy-3,6-dimethyl-1,2,3,4,5,6-hexahydro-2,6-methanobenzo[d]azocin-11-yl)amino)propyl)carbamate] | 0.00223 ± 0.00012 | 64 ± 4 | 0.0426 ± 0.00764 | 22.7 ± 2.33 | 
17 | C[C@]12CCN(CC3CC3)[C@H](Cc3ccc(O)cc31)[C@@H]2NCCc1ccc(S(N)(=O)=O)cc1 [Compound 96, 4-(2-(((2R,6S,11R)-3-(cyclopropylmethyl)-8-hydroxy-6-methyl-1,2,3,4,5,6-hexahydro-2,6-methanobenzo[d]azocin-11-yl)amino)ethyl)benzenesulfonamide] | 0.00601 ± 0.00051 | 32.3 ± 0.88 | 0.00641 ± 0.00167 |  | 
18 | CN1CC[C@@]2(C)c3cc(O)ccc3C[C@@H]1[C@H]2NCCc1ccc(C(C)(C)C)cc1 [Compound 105, (2R,6S,11S)-11-((4-(tert-butyl)phenethyl)amino)-3,6-dimethyl-1,2,3,4,5,6-hexahydro-2,6-methanobenzo[d]azocin-8-ol] | 0.00022 ± 5.2e-05 | 32.7 ± 1.76 |  | 1 | EC50 (κ opioid receptor; [7]): > 20 µM
19 | CN(C(=O)c1ccsc1)[C@@H]1[C@H]2Cc3ccc(O)cc3[C@]1(C)CCN2CC1CC1 [Compound 114, N-((2R,6S,11S)-3-(cyclopropylmethyl)-8-hydroxy-6-methyl-1,2,3,4,5,6-hexahydro-2,6-methanobenzo[d]azocin-11-yl)-N-methylthiophene-3-carboxamide] | 0.152 ± 0.0168 | 20.7 ± 0.67 | 0.0189 ± 0.00201 | 107 ± 4.36 | 
20 | CN1CC[C@@]2(C)c3cc(O)ccc3C[C@@H]1[C@H]2N(C)C(=O)Cc1ccccc1 [Compound 117, N-((2R,6S,11S)-8-hydroxy-3,6-dimethyl-1,2,3,4,5,6-hexahydro-2,6-methanobenzo[d]azocin-11-yl)-N-methyl-2-phenylacetamide] | 0.822 ± 0.0939 | 93.7 ± 5.36 | 3.39 ± 0.439 | 79.7 ± 5.46 | 
21 | CN1CC[C@@]2(C)c3cc(O)ccc3C[C@@H]1[C@H]2N(C)C(=O)c1ccsc1 [Compound 125, N-((2R,6S,11S)-8-hydroxy-3,6-dimethyl-1,2,3,4,5,6-hexahydro-2,6-methanobenzo[d]azocin-11-yl)-N-methylthiophene-3-carboxamide] | 2.62 ± 0.396 | 70.7 ± 2.33 | 0.443 ± 0.0732 | 102 ± 5.69 | 
22 | CN(C(=O)Nc1nc2cc(F)ccc2s1)[C@@H]1[C@H]2Cc3ccc(O)cc3[C@]1(C)CCN2CC1CC1 [Compound 134, 1-((2R,6S,11S)-3-(cyclopropylmethyl)-8-hydroxy-6-methyl-1,2,3,4,5,6-hexahydro-2,6-methanobenzo[d]azocin-11-yl)-3-(5-fluorobenzo[d]thiazol-2-yl)-1-methylurea] |  |  |  |  | EC50 (μ-opioid receptor [1]; GTPγS μ EC50, U-2 OS cells): 0.00147 ± 0.00058 µM; Emax (μ-opioid receptor [1]; read-out: GTPγS μ Emax, U-2 OS cells, relative to DAMGO): 16 ± 0.71%; EC50 (κ opioid receptor): > 20 µM; Emax (κ opioid receptor): 90%
23 | COc1ccc2c(c1)[C@@]1(C)CCN(C)C(C2)C1N1CCC(N)CC1 (stereo partly drawn) [Compound 70, 1-((6R)-8-methoxy-3,6-dimethyl-1,2,3,4,5,6-hexahydro-2,6-methanobenzo[d]azocin-11-yl)piperidin-4-amine] |  |  |  |  | EC50 (μ-opioid receptor [2]): 9380 ± 501 nM; Emax (μ-opioid receptor [2]; read-out: GTPγS μ Emax): 24.7 ± 0.88%
